# Data published in PubChem BioAssay (NCI).
#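 In this assay, cells in 96-well plates receive the compound at five concentrations for 48 hours. Endpoints are linearly interpolated between the surrounding concentrations. TGI denotes the concentration required for complete inhibition of growth.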
# Experiments:
# Experiment in all cases: inhibition of tumour cell growth, NCI panel, 48 h
# [1] = system: HL-60(TB) leukemia
# [2] = system: HT29 colon
# [3] = system: EKVX NSCLC
# [4] = system: CAKI-1 renal
# [5] = system: SK-OV-3 ovarian
# [6] = system: KM12 colon
# [7] = system: NCI-H522 lung
# [8] = system: SF-295 CNS
# [9] = system: UACC-257 melanoma
# [10] = system: SNB-75 CNS
# [11] = system: KM20L2 colon
# [12] = system: HCT-15 colon
# [13] = system: M19-MEL melanoma
# [14] = system: K-562 leukemia
# [15] = system: DLD-1 colon
# [16] = system: OVCAR-4 ovarian
# [17] = system: SK-MEL-2 melanoma
# [18] = system: HOP-18 NSCLC
# [19] = system: DMS 273 small cell lung
# [20] = system: OVCAR-3 ovarian
# [21] = system: NCI-H226 lung
# [22] = system: UO-31 renal
# [23] = system: OVCAR-5 ovarian
# [24] = system: SF-268 CNS
# [25] = system: IGROV1 ovarian
# [26] = system: A549 NSCLC
# [27] = system: SNB-78 CNS
# [28] = system: M14 melanoma
# [29] = system: OVCAR-8 ovarian
# [30] = system: MOLT-4 leukemia
# [31] = system: SK-MEL-5 melanoma
# [32] = system: SF-539 CNS
# [33] = system: LOX IMVI melanoma
# [34] = system: CCRF-CEM leukemia
# [35] = system: COLO 205 colon
# [36] = system: UACC-62 melanoma
# [37] = system: U251 CNS
# [38] = system: NCI-H460 lung
# [39] = system: HCT-116 colon
# [40] = system: SNB-19 CNS
# [41] = system: TK-10 renal
# [42] = system: RPMI-8226 leukemia
# [43] = system: SN12C renal
# [44] = system: HOP-62 NSCLC
# [45] = system: RXF 393 renal
# [46] = system: A498 renal
# [47] = system: HOP-92 NSCLC
# [48] = system: SK-MEL-28 melanoma
# [49] = system: NCI-H23 lung
# [50] = system: HCC-2998 colon
# [51] = system: DMS 114 small cell lung
# [52] = system: LXFL 529 NSCLC
# [53] = system: MALME-3M melanoma
# [54] = system: ACHN renal
# [55] = system: 786-0 renal
# [56] = system: SW-620 colon
smiles,measurement,setting,value
COc1ccc2nc3cc(Cl)ccc3c(NCCCN(CCCl)CCCl)c2c1,TGI,[1],0.0135 µM
same,TGI,[2],0.333 µM
same,TGI,[3],0.539 µM
same,TGI,[4],0.123 µM
same,TGI,[5],1.12 µM
same,TGI,[6],0.395 µM
same,TGI,[7],0.163 µM
same,TGI,[8],0.505 µM
same,TGI,[9],> 100 µM
same,TGI,[10],0.407 µM
same,TGI,[11],> 100 µM
same,TGI,[12],1.13 µM
same,TGI,[13],0.846 µM
same,TGI,[14],0.154 µM
same,TGI,[15],> 100 µM
same,TGI,[16],0.232 µM
same,TGI,[17],0.437 µM
same,TGI,[18],9.4 µM
same,TGI,[19],1.03 µM
same,TGI,[20],0.295 µM
same,TGI,[21],0.311 µM
same,TGI,[22],1.02 µM
same,TGI,[23],0.31 µM
same,TGI,[24],0.3 µM
same,TGI,[25],0.479 µM
same,TGI,[26],0.664 µM
NNC(=O)CCC(=O)NC1C2CC3CC(C2)CC1C3 (centres undefined),TGI,[1],> 100 µM
same,TGI,[27],> 100 µM
same,TGI,[28],> 100 µM
same,TGI,[29],> 100 µM
same,TGI,[30],> 100 µM
same,TGI,[31],> 100 µM
same,TGI,[32],> 100 µM
same,TGI,[2],> 100 µM
same,TGI,[33],> 100 µM
same,TGI,[34],> 100 µM
same,TGI,[35],> 100 µM
same,TGI,[36],> 100 µM
same,TGI,[37],> 100 µM
same,TGI,[38],> 100 µM
same,TGI,[4],> 100 µM
same,TGI,[5],> 100 µM
same,TGI,[39],> 100 µM
same,TGI,[40],> 100 µM
same,TGI,[6],> 100 µM
same,TGI,[7],> 100 µM
same,TGI,[8],> 100 µM
same,TGI,[41],> 100 µM
same,TGI,[9],> 100 µM
same,TGI,[10],> 100 µM
same,TGI,[11],> 100 µM
same,TGI,[12],> 100 µM
same,TGI,[42],> 100 µM
same,TGI,[13],> 100 µM
same,TGI,[14],> 100 µM
same,TGI,[15],> 100 µM
same,TGI,[43],> 100 µM
same,TGI,[16],> 100 µM
same,TGI,[44],> 100 µM
same,TGI,[17],> 100 µM
same,TGI,[45],> 100 µM
same,TGI,[46],> 100 µM
same,TGI,[19],> 100 µM
same,TGI,[21],> 100 µM
same,TGI,[47],> 100 µM
same,TGI,[22],> 100 µM
same,TGI,[48],> 100 µM
same,TGI,[49],> 100 µM
same,TGI,[50],> 100 µM
same,TGI,[51],> 100 µM
same,TGI,[23],> 100 µM
same,TGI,[24],> 100 µM
same,TGI,[52],> 100 µM
same,TGI,[25],> 100 µM
same,TGI,[26],> 100 µM
same,TGI,[53],> 100 µM
same,TGI,[54],> 100 µM
same,TGI,[55],> 100 µM
same,TGI,[56],> 100 µM
